Data: PubChem BioAssay AID248 (DTP/NCI, 2004)
Values joined by “and” are separate entries in the source; they are usually repeats but may differ in a detail not shown here. Identical values can stand only once. Inconclusive results and toxic doses are left out. Cut-off read from the data, not from the text of the source: active = T/C of 150% or more; inactive = T/C below 125%.

Test system: L1210 leukemia ip in BDF1 mice, survival T/C
Experiment: NCI In Vivo Anticancer Drug Screen. Data for tumor model L1210 Leukemia (intraperitoneal) in B6D2F1 (BDF1) mice
Details: endpoint: mean survival time, higher = longer survival
Procedure, shortened: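 Antitumor effect is assessed in tumor-bearing animals. Survival in the compound arm is compared with a vehicle-dosed control arm and expressed as their quotient.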

[1] = dose: 25.0 mg/kg/injection, schedule: Q01DX001 (ip), vehicle: saline with Tween-80
[2] = dose: 100.0 mg/kg/injection, schedule: Q01DX001 (ip), vehicle: saline with Tween-80
[3] = dose: 100.0 mg/kg/injection, schedule: Q01DX009 (ip), vehicle: Klucel (hydroxypropylcellulose) (HPC)
[4] = dose: 200.0 mg/kg/injection, schedule: Q01DX009 (ip), vehicle: Klucel (hydroxypropylcellulose) (HPC)
[5] = dose: 400.0 mg/kg/injection, schedule: Q01DX009 (ip), vehicle: Klucel (hydroxypropylcellulose) (HPC)
[6] = dose: 100.0 mg/kg/injection, schedule: Q04DX003 (ip), vehicle: saline with Tween-80
[7] = dose: 200.0 mg/kg/injection, schedule: Q04DX003 (ip), vehicle: saline with Tween-80
[8] = dose: 400.0 mg/kg/injection, schedule: Q04DX003 (ip), vehicle: saline with Tween-80
[9] = dose: 25.0 mg/kg/injection, schedule: Q04DX003 (ip), vehicle: Klucel (hydroxypropylcellulose) (HPC)
[10] = dose: 50.0 mg/kg/injection, schedule: Q04DX003 (ip), vehicle: Klucel (hydroxypropylcellulose) (HPC)
[11] = dose: 25.0 mg/kg/injection, schedule: Q01DX009 (ip), vehicle: Klucel (hydroxypropylcellulose) (HPC)
[12] = dose: 50.0 mg/kg/injection, schedule: Q01DX009 (ip), vehicle: Klucel (hydroxypropylcellulose) (HPC)
[13] = dose: 200.0 mg/kg/injection, schedule: Q01DX001 (ip), vehicle: saline with Tween-80
[14] = dose: 400.0 mg/kg/injection, schedule: Q01DX001 (ip), vehicle: saline with Tween-80
[15] = dose: 12.5 mg/kg/injection, schedule: Q01DX009 (ip), vehicle: saline with Tween-80
[16] = dose: 100.0 mg/kg/injection, schedule: Q04DX003 (ip), vehicle: Klucel (hydroxypropylcellulose) (HPC)
[17] = dose: 200.0 mg/kg/injection, schedule: Q04DX003 (ip), vehicle: Klucel (hydroxypropylcellulose) (HPC)
[18] = dose: 25.0 mg/kg/injection, schedule: Q01DX009 (ip), vehicle: saline
[19] = dose: 50.0 mg/kg/injection, schedule: Q01DX009 (ip), vehicle: saline
[20] = dose: 100.0 mg/kg/injection, schedule: Q01DX009 (ip), vehicle: saline
[21] = dose: 25.0 mg/kg/injection, schedule: Q01DX009 (ip), vehicle: saline with Tween-80
[22] = dose: 400.0 mg/kg/injection, schedule: Q04DX003 (ip), vehicle: Klucel (hydroxypropylcellulose) (HPC)
[23] = dose: 100.0 mg/kg/injection, schedule: Q01DX001 (ip), vehicle: saline
[24] = dose: 200.0 mg/kg/injection, schedule: Q01DX001 (ip), vehicle: saline
[25] = dose: 400.0 mg/kg/injection, schedule: Q01DX001 (ip), vehicle: saline
[26] = dose: 50.0 mg/kg/injection, schedule: Q01DX001 (ip), vehicle: saline
[27] = dose: 100.0 mg/kg/injection, schedule: Q04DX002 (ip), vehicle: saline with Tween-80
[28] = dose: 200.0 mg/kg/injection, schedule: Q04DX002 (ip), vehicle: saline with Tween-80

Measured: T/C

C/C(=C\Cn1ccccc1=O)CCC(=O)O
inactive: dose: 100.0 mg/kg/injection, schedule: Q01DX009 (ip), vehicle: water 100 % of control | dose: 100.0 mg/kg/injection, schedule: Q04DX003 (ip), vehicle: other 94 % of control | dose: 200.0 mg/kg/injection, schedule: Q01DX009 (ip), vehicle: water 97 % of control | dose: 200.0 mg/kg/injection, schedule: Q04DX003 (ip), vehicle: other 98 % of control | dose: 400.0 mg/kg/injection, schedule: Q01DX009 (ip), vehicle: water 96 % of control | dose: 400.0 mg/kg/injection, schedule: Q04DX003 (ip), vehicle: other 89 % of control

Cc1ccc(OC(=O)C(C(=O)Oc2ccc(C)cc2)C(=O)Oc2ccc(C)cc2)cc1
inactive: [1] 104 % of control | dose: 50.0 mg/kg/injection, schedule: Q01DX001 (ip), vehicle: saline with Tween-80 101 % of control | [2] 95 % of control and 98 % of control

NC(=S)NNC(=S)S
inactive: [3] 98 % of control | [4] 98 % of control | [5] 109 % of control

CCCCCC(C)O[Si](C)c1cccc(C)c1 (stereo not given)
inactive: [6] 107 % of control | [7] 98 % of control | [8] 102 % of control

C1=C(c2ccccc2)CC2CCCC1N2Cc1ccccc1 (stereo not given)
inactive: dose: 12.5 mg/kg/injection, schedule: Q04DX003 (ip), vehicle: Klucel (hydroxypropylcellulose) (HPC) 102 % of control | [9] 102 % of control | [10] 94 % of control

CCc1ccc(NC(=O)c2c(Br)c(Br)c(Br)c(Br)c2C(=O)O)cc1
inactive: [11] 96 % of control | [12] 104 % of control | [3] 101 % of control and 107 % of control

CC(=O)CC(=O)Nc1cccc(Cl)c1
inactive: dose: 15.0 mg/kg/injection, schedule: Q01DX001 (ip), vehicle: carboxymethylcellulose (CMC) 108 % of control | dose: 30.0 mg/kg/injection, schedule: Q01DX001 (ip), vehicle: carboxymethylcellulose (CMC) 108 % of control

CC(O)(CCc1ccccc1)CC(O)(C(F)(F)F)C(F)(F)F (stereo not given)
inactive: [6] 101 % of control | [7] 94 % of control | [8] 95 % of control

Nc1cc(Cl)c(N)c(N)n1
inactive: [2] 94 % of control | [13] 109 % of control | [14] 108 % of control

NNC(=O)CNc1ccc(Cl)cc1
inactive: dose: 25.0 mg/kg/injection, schedule: Q04DX002 (ip), vehicle: Klucel (hydroxypropylcellulose) (HPC) 98 % of control | dose: 50.0 mg/kg/injection, schedule: Q04DX002 (ip), vehicle: Klucel (hydroxypropylcellulose) (HPC) 106 % of control | dose: 100.0 mg/kg/injection, schedule: Q04DX002 (ip), vehicle: Klucel (hydroxypropylcellulose) (HPC) 98 % of control and 123 % of control

CC1=Nc2c([nH]cnc2=S)NN1
inactive: dose: 6.25 mg/kg/injection, schedule: Q01DX009 (ip), vehicle: saline with Tween-80 94 % of control | dose: 6.25 mg/kg/injection, schedule: Q04DX003 (ip), vehicle: saline with Tween-80 102 % of control | dose: 12.5 mg/kg/injection, schedule: Q01DX001 (ip), vehicle: saline with Tween-80 87 % of control | [15] 91 % of control | dose: 12.5 mg/kg/injection, schedule: Q04DX003 (ip), vehicle: saline with Tween-80 98 % of control | [1] 102 % of control | dose: 25.0 mg/kg/injection, schedule: Q04DX003 (ip), vehicle: saline with Tween-80 100 % of control

CCOC(=O)C(C(=O)OCC)C(=O)c1cc(-c2ccc(Cl)c(Cl)c2)nc2c(Cl)cc(Cl)cc12
inactive: [12] 98 % of control | [3] 104 % of control | [16] 101 % of control | [17] 109 % of control

O=C(O)CNCC(=O)O
inactive: [18] 103 % of control | [19] 90 % of control | [20] 93 % of control and 95 % of control | [6] 105 % of control | [7] 101 % of control | [8] 105 % of control

CN(C)c1ccc(/C=C\c2cc(/C=C/c3ccc(N(C)C)cc3)c([N+](=O)[O-])cc2[N+](=O)[O-])cc1
inactive: dose: 75.0 mg/kg/injection, schedule: Q01DX001 (ip), vehicle: saline 98 % of control and 89 % of control | dose: 150.0 mg/kg/injection, schedule: Q01DX001 (ip), vehicle: saline 86 % of control | dose: 300.0 mg/kg/injection, schedule: Q01DX001 (ip), vehicle: saline 95 % of control and 101 % of control

Cc1cccc(SC(=O)Nc2ccc(Cl)cc2C)c1
inactive: [15] 91 % of control | [21] 95 % of control | dose: 50.0 mg/kg/injection, schedule: Q01DX009 (ip), vehicle: saline with Tween-80 119 % of control

CCCCNC(=O)NC(C(=O)OCC)C(=O)OCC
inactive: [3] 97 % of control | [16] 100 % of control | [4] 102 % of control | [17] 100 % of control | [5] 96 % of control | [22] 102 % of control

CCNC(Cc1ccccc1)c1ccc(OC)cc1 (stereo not given)
inactive: [11] 97 % of control | [9] 110 % of control | [12] 94 % of control | [10] 102 % of control | [16] 98 % of control and 102 % of control

COC1(c2ccccc2)OC(Cc2ccccc2)=NC1(C)C (stereo not given)
inactive: [16] 94 % of control | [17] 94 % of control | [22] 94 % of control

NC(N)=NCCCC(N=Cc1ccccc1O)C(=O)O (stereo not given)
inactive: [23] 96 % of control | [24] 102 % of control | [25] 95 % of control

O=S1Cc2cc3ccccc3cc2C1
inactive: [2] 102 % of control | [13] 103 % of control | [14] 108 % of control

C=CCc1cc(CNCCCO)c(O)c(OC)c1
inactive: [9] 93 % of control | [10] 95 % of control | [16] 93 % of control

Nc1ncnc2c1ncn2CCC(O)c1ccccc1 (stereo not given)
inactive: [26] 95 % of control | [23] 93 % of control | [24] 95 % of control | [25] 93 % of control

CC1(c2cccs2)C(=O)N(Cl)C(=O)N1Cl (stereo not given)
inactive: [18] 110 % of control | [19] 106 % of control | [20] 104 % of control | dose: 100.0 mg/kg/injection, schedule: Q04DX003 (ip), vehicle: saline 96 % of control

c1ccc(CCN2CCC(CCc3c[nH]c4ccccc34)CC2)cc1
inactive: [26] 96 % of control | [23] 117 % of control

OC12CC3CC(CC(C3)C1)C2
inactive: [23] 95 % of control | [24] 106 % of control | [25] 103 % of control

Cc1ccc(Sc2cccc3c2C(=O)c2c(Sc4ccc(C)cc4)cccc2C3=O)cc1
inactive: [6] 86 % of control | [7] 91 % of control | [8] 88 % of control

NC(=S)NNc1ccccc1
inactive: [27] 105 % of control | [28] 105 % of control

CCOC(=O)N(OC(C)=O)P(=O)(N1CC1(C)C)N1CC1(C)C (stereo not given)
inactive: dose: 100.0 mg/kg/injection, schedule: Q04DX002 (ip), vehicle: saline 100 % of control | dose: 200.0 mg/kg/injection, schedule: Q04DX002 (ip), vehicle: saline 123 % of control

CSc1ncnc2c1ncn2CC(=O)C1CCC2C3CCC4=CC(=O)CCC4(C)C3CCC12C (stereo not given)
inactive: dose: 100.0 mg/kg/injection, schedule: Q01DX001 (sc), vehicle: steriod suspending solution 99 % of control | dose: 200.0 mg/kg/injection, schedule: Q01DX001 (sc), vehicle: steriod suspending solution 100 % of control | dose: 400.0 mg/kg/injection, schedule: Q01DX001 (sc), vehicle: steriod suspending solution 99 % of control

CCN(C(=O)NC(C)(C)C)c1cccc(C)c1
inactive: [15] 108 % of control | [21] 105 % of control and 106 % of control | [2] 122 % of control | [27] 101 % of control and 86 % of control | [6] 102 % of control | [28] 94 % of control and 97 % of control | [7] 105 % of control | [14] 103 % of control | dose: 400.0 mg/kg/injection, schedule: Q04DX002 (ip), vehicle: saline with Tween-80 101 % of control
